Experimental data: ChEMBL document CHEMBL3297657, “Synthesis and antitumor activities of novel α-aminophosphonate derivatives containing an alizarin moiety” (Eur J Med Chem, 2014)
Active and inactive are the calls of the source. No cut-off for these calls is given here.

Key:
HeLa = assay: cells; conditions: Homo sapiens, 48 h
Description: Cytotoxicity against human HeLa cells after 48 hrs by MTT assay

NCI-H460 [1] = assay: Cell cycle arrest in human NCI-H460 cells assessed as accumulation at G1 phase at 8 uM after 24 hrs by Rnase A/propidium iodide staining-based flow cytometry (reference value: 46.69%); format: functional
NCI-H460 [2] = assay: Induction of apoptosis in human NCI-H460 cells assessed as late apoptotic cells at 20 uM after 24 hrs by Annexin V/propidium iodide staining-based flow cytometry (reference value: 14.1%); format: functional
HUVEC = assay: Cytotoxicity against HUVEC after 48 hrs by MTT assay; format: cell-based; conditions: Homo sapiens
NCI-H460 [3] = assay: Induction of apoptosis in human NCI-H460 cells assessed as early apoptotic cells after 24 hrs by Annexin V/propidium iodide staining-based flow cytometry; format: functional, cell-based
NCI-H460 [4] = assay: Induction of apoptosis in human NCI-H460 cells assessed as karyopyknosis and chromatin condensation at 5 to 20 uM after 24 hrs by Hoechst 33258 staining-based fluorescence microscopy relative to control; format: functional, cell-based
NCI-H460 [5] = assay: Induction of apoptosis in human NCI-H460 cells assessed as karyopyknosis and chromatin condensation after 24 hrs by Hoechst 33258 staining-based fluorescence microscopy relative to control; format: functional, cell-based
NCI-H460 [6] = assay: Induction of apoptosis in human NCI-H460 cells assessed as downregulation of Bcl-2 mRNA expression after 24 hrs by qRT-PCR analysis; format: functional, cell-based
NCI-H460 [7] = assay: Induction of apoptosis in human NCI-H460 cells assessed as necrotic cells after 24 hrs by Annexin V/propidium iodide staining-based flow cytometry; format: functional, cell-based
NCI-H460 [8] = assay: Induction of apoptosis in human NCI-H460 cells assessed as late apoptotic cells at 8 uM after 48 hrs by Annexin V/propidium iodide staining-based flow cytometry (reference value: 14.1%); format: functional
NCI-H460 [9] = assay: Induction of apoptosis in human NCI-H460 cells assessed as late apoptotic cells at 8 uM after 24 hrs by Annexin V/propidium iodide staining-based flow cytometry (reference value: 14.1%); format: functional
NCI-H460 [10] = assay: Cell cycle arrest in human NCI-H460 cells assessed as accumulation at G2 phase at 5 uM after 48 hrs by Rnase A/propidium iodide staining-based flow cytometry (reference value: 33.9%); format: functional
NCI-H460 [11] = assay: Cell cycle arrest in human NCI-H460 cells assessed as accumulation at G1 phase at 20 uM after 48 hrs by Rnase A/propidium iodide staining-based flow cytometry (reference value: 46.69%); format: functional
NCI-H460 [12] = assay: Induction of apoptosis in human NCI-H460 cells assessed as necrotic cells at 8 uM after 24 hrs by Annexin V/propidium iodide staining-based flow cytometry (reference value: 6.9%); format: functional
NCI-H460 [13] = assay: Induction of apoptosis in human NCI-H460 cells assessed as necrotic cells at 8 uM after 12 hrs by Annexin V/propidium iodide staining-based flow cytometry (reference value: 6.9%); format: functional
NCI-H460 [14] = assay: Cytotoxicity against human NCI-H460 cells after 48 hrs by MTT assay; format: functional, cell-based; conditions: NCI-H460, 48 h
NCI-H460 [15] = assay: Induction of apoptosis in human NCI-H460 cells assessed as karyopyknosis and chromatin condensation at 8 uM after 12 to 48 hrs by Hoechst 33258 staining-based fluorescence microscopy relative to control; format: functional, cell-based
NCI-H460 [16] = assay: Induction of apoptosis in human NCI-H460 cells assessed as early apoptotic cells at 5 to 20 uM after 24 hrs by Annexin V/propidium iodide staining-based flow cytometry relative to control; format: functional, cell-based
NCI-H460 [17] = assay: Induction of apoptosis in human NCI-H460 cells assessed as caspase-3 activation after 24 hrs by qRT-PCR analysis; format: functional, cell-based
NCI-H460 [18] = assay: Cell cycle arrest in human NCI-H460 cells assessed as accumulation at S phase at 8 uM after 24 hrs by Rnase A/propidium iodide staining-based flow cytometry (reference value: 19.41%); format: functional
NCI-H460 [19] = assay: Cell cycle arrest in human NCI-H460 cells assessed as accumulation at S phase at 8 uM after 12 hrs by Rnase A/propidium iodide staining-based flow cytometry (reference value: 19.41%); format: functional
NCI-H460 [20] = assay: Induction of apoptosis in human NCI-H460 cells assessed as early apoptotic cells at 20 uM after 24 hrs by Annexin V/propidium iodide staining-based flow cytometry (reference value: 6.8%); format: functional
NCI-H460 [21] = assay: Cell cycle arrest in human NCI-H460 cells assessed as accumulation at S phase at 5 uM after 48 hrs by Rnase A/propidium iodide staining-based flow cytometry (reference value: 19.41%); format: functional
NCI-H460 [22] = assay: Cell cycle arrest in human NCI-H460 cells assessed as accumulation at G2 phase at 8 uM after 48 hrs by Rnase A/propidium iodide staining-based flow cytometry (reference value: 33.9%); format: functional
NCI-H460 [23] = assay: Induction of apoptosis in human NCI-H460 cells assessed as necrotic cells at 20 uM after 24 hrs by Annexin V/propidium iodide staining-based flow cytometry (reference value: 6.9%); format: functional
NCI-H460 [24] = assay: Induction of apoptosis in human NCI-H460 cells assessed as viable cells at 10 uM after 24 hrs by Annexin V/propidium iodide staining-based flow cytometry (reference value: 72.2%); format: functional; conditions: NCI-H460, 24 h, read-out: Activity
NCI-H460 [25] = assay: Cell cycle arrest in human NCI-H460 cells assessed as accumulation at G1 phase at 8 uM after 48 hrs by Rnase A/propidium iodide staining-based flow cytometry (reference value: 46.69%); format: functional
NCI-H460 [26] = assay: Induction of apoptosis in human NCI-H460 cells assessed as late apoptotic cells after 24 hrs by Annexin V/propidium iodide staining-based flow cytometry; format: functional, cell-based
NCI-H460 [27] = assay: Cell cycle arrest in human NCI-H460 cells assessed as accumulation at G1 phase at 8 uM after 12 hrs by Rnase A/propidium iodide staining-based flow cytometry (reference value: 46.69%); format: functional
NCI-H460 [28] = assay: Induction of apoptosis in human NCI-H460 cells assessed as change in mitochondrial membrane potential at 8 uM by JC-1 staining-based fluorescence microscopy relative to control; format: functional, cell-based; conditions: TDE = time-dependent effect
NCI-H460 [29] = assay: Induction of apoptosis in human NCI-H460 cells assessed as late apoptotic cells at 8 uM after 12 hrs by Annexin V/propidium iodide staining-based flow cytometry (reference value: 14.1%); format: functional
MGC-803 = assay: Cytotoxicity against human MGC803 cells after 48 hrs by MTT assay; format: functional, cell-based; conditions: MGC-803, 48 h
NCI-H460 [30] = assay: Cell cycle arrest in human NCI-H460 cells assessed as accumulation at G2 phase at 8 uM after 12 hrs by Rnase A/propidium iodide staining-based flow cytometry (reference value: 33.9%); format: functional
NCI-H460 [31] = assay: Induction of apoptosis in human NCI-H460 cells assessed as early apoptotic cells at 5 uM after 24 hrs by Annexin V/propidium iodide staining-based flow cytometry (reference value: 6.8%); format: functional
HepG2 = assay: cells; conditions: Homo sapiens, HepG2, 48 h
Description: Cytotoxicity against human HepG2 cells after 48 hrs by MTT assay

NCI-H460 [32] = assay: Induction of apoptosis in human NCI-H460 cells assessed as early apoptotic cells at 8 uM after 12 hrs by Annexin V/propidium iodide staining-based flow cytometry (reference value: 6.8%); format: functional
NCI-H460 [33] = assay: Induction of apoptosis in human NCI-H460 cells assessed as early apoptotic cells at 10 uM after 24 hrs by Annexin V/propidium iodide staining-based flow cytometry (reference value: 6.8%); format: functional

Structure (SMILES) | IC50 (HeLa) [µM] | Activity (NCI-H460 [1]) [%] | Activity (NCI-H460 [2]) [%] | IC50 (HUVEC) [µM] | Activity (NCI-H460 [3]) | Activity (NCI-H460 [4]) | Activity (NCI-H460 [5]) | Activity (NCI-H460 [6]) | Activity (NCI-H460 [7]) | Activity (NCI-H460 [8]) [%] | Activity (NCI-H460 [9]) [%] | Activity (NCI-H460 [10]) [%] | Activity (NCI-H460 [11]) [%] | Activity (NCI-H460 [12]) [%] | Activity (NCI-H460 [13]) [%] | IC50 (NCI-H460 [14]) [µM] | Activity (NCI-H460 [15]) | Activity (NCI-H460 [16]) | Activity (NCI-H460 [17]) | Activity (NCI-H460 [18]) [%] | other results
CCOP(=O)(OCC)C(NC(=O)C(C)Oc1ccc2c(c1O)C(=O)c1ccccc1C2=O)c1cccc2ccccc12 (stereo unspecified) | 15 | 66.33 | 16.4 | 40.5 | Dose-dependent effect | Active | Dose-dependent effect | Dose-dependent effect | Dose-dependent effect | 14.8 | 13.5 | 25.78 | 61.6 | 2.4 | 0.9 | 6.83 | Active | Active | Dose-dependent effect | 1.11 | Activity (NCI-H460 [19]): 0.11%; Activity (NCI-H460 [20]): 38.8%; Activity (NCI-H460 [21]): 17.02%; Activity (NCI-H460 [22]): 31.5%; Activity (NCI-H460 [23]): 1.4%; viability at 10 µM (NCI-H460 [24]): 44.6%; Activity (NCI-H460 [25]): 68.09%; Activity (NCI-H460 [26]): Dose-dependent effect; Activity (NCI-H460 [27]): 65.57%; Activity (NCI-H460 [28]): tde; Activity (NCI-H460 [29]): 8.3%; IC50 (MGC-803): 3.77 µM; Activity (NCI-H460 [30]): 34.32%; Activity (NCI-H460 [31]): 10.9%; IC50 (HepG2): 40.5 µM; Activity (NCI-H460 [32]): 19.9%; Activity (NCI-H460 [33]): 35.7%
CCOP(=O)(OCC)C(NC(=O)C(C)Oc1ccc2c(c1O)C(=O)c1ccccc1C2=O)c1ccccc1OC (stereo unspecified) | 28.2 | 64.92 | 30.7 | > 50 | Dose-dependent effect | Active | Dose-dependent effect | Dose-dependent effect | Dose-dependent effect | 18.2 | 11.1 | 34.41 | 65.1 | 2.5 | 0.7 | 9.8 | Active | Active | Dose-dependent effect | 13.09 | Activity (NCI-H460 [19]): 15.62%; Activity (NCI-H460 [20]): 34.7%; Activity (NCI-H460 [21]): 8.74%; Activity (NCI-H460 [22]): 22.97%; Activity (NCI-H460 [23]): 12.9%; viability at 10 µM (NCI-H460 [24]): 41.4%; Activity (NCI-H460 [25]): 68.16%; Activity (NCI-H460 [26]): Dose-dependent effect; Activity (NCI-H460 [27]): 56.84%; Activity (NCI-H460 [28]): tde; Activity (NCI-H460 [29]): 5.6%; IC50 (MGC-803): 10.1 µM; Activity (NCI-H460 [30]): 27.54%; Activity (NCI-H460 [31]): 26.6%; IC50 (HepG2): 88.2 µM; Activity (NCI-H460 [32]): 21.9%; Activity (NCI-H460 [33]): 32.4%
CCOP(=O)(OCC)C(NC(=O)C(C)Oc1ccc2c(c1O)C(=O)c1ccccc1C2=O)c1ccccc1F (stereo unspecified) | 21.1 | 60.05 | 9.8 | 21 | Dose-dependent effect | Active | Dose-dependent effect | Dose-dependent effect | Dose-dependent effect | 9.3 | 13 | 23.14 | 68.89 | 1.9 | 0.5 | 3.8 | Active | Active | Dose-dependent effect | 16.3 | Activity (NCI-H460 [19]): 14.65%; Activity (NCI-H460 [20]): 55.1%; Activity (NCI-H460 [21]): 12.34%; Activity (NCI-H460 [22]): 23.61%; Activity (NCI-H460 [23]): 1.4%; viability at 10 µM (NCI-H460 [24]): 36.2%; Activity (NCI-H460 [25]): 65.52%; Activity (NCI-H460 [26]): Dose-dependent effect; Activity (NCI-H460 [27]): 55.78%; Activity (NCI-H460 [28]): tde; Activity (NCI-H460 [29]): 7.9%; IC50 (MGC-803): 18.8 µM; Activity (NCI-H460 [30]): 29.57%; Activity (NCI-H460 [31]): 28.9%; IC50 (HepG2): 21 µM; Activity (NCI-H460 [32]): 30.3%; Activity (NCI-H460 [33]): 56.3%
